Assay results: US8410177B2, “Curcumin derivatives” (Indian Institute of Technology Bombay, priority 2009, dated 2013)

Question: With `COc1ccc(/C=C/C(=O)C2C(=O)CC(c3ccc(OC)cc3)[C@H]([N+](=O)[O-])C2c2ccc(OC)cc2)cc1` (some centres unmarked) [IX-1, 3,5-Bis(4-Methoxyphenyl)-2-((E)-3-(4-Methoxyphenyl)acryloyl)-4-Nitrocyclohexanone] as the compound, how does the melting point read?
Answer: The melting point was 200 to 202 °C.

Question: Which melting point does the source give for `COc1ccc(/C=C/C(=O)C2C(=O)C[C@H](c3ccc(OC)cc3)[C@H]([N+](=O)[O-])[C@H]2c2ccc(OC)c(OC)c2)cc1` (some centres unmarked) [IX-2, 3-(3,4-Dimethoxyphenyl)-5-(4-Methoxyphenyl)-2-((E)-3-(4-Methoxyphenyl)acryloyl)-4-Nitrocyclohexanone] here?
Answer: Its melting point is 126 to 128 °C.

Question: For `COc1ccc(/C=C/C(=O)C2C(=O)C[C@H](c3ccc(OC)cc3)[C@H]([N+](=O)[O-])[C@H]2c2ccccc2)cc1` (some centres unmarked) [IX-3, 5-(4-Methoxyphenyl)-2-((E)-3-(4-Methoxyphenyl)acryloyl)-4-Nitro-3-Phenylcyclohexanone], which melting point is on record?
Answer: Its melting point is 164 to 165 °C.

Question: With `COc1ccc(/C=C/C(=O)C2C(=O)C[C@H](c3ccc(OC)cc3)[C@H]([N+](=O)[O-])C2c2ccc(Cl)cc2)cc1` (some centres unmarked) [IX-4, 3-(4-Chlorophenyl)-5-(4-Methoxyphenyl)-2-((E)-3-(4-Methoxyphenyl)acryloyl)-4-Nitrocyclohexanone] as the compound, how does the melting point read?
Answer: The melting point was 156 to 158 °C.

Question: With `COc1ccc(/C=C/C(=O)C2C(=O)C[C@H](c3ccc(OC)cc3)[C@H]([N+](=O)[O-])[C@H]2c2cccs2)cc1` (some centres unmarked) [IX-5, 5-(4-Methoxyphenyl)-2-((E)-3-(4-Methoxyphenyl)acryloyl)-4-Nitro-3-(Thiophen-2-yl)cyclohexanone] as the compound, how does the melting point read?
Answer: Its melting point is 160 to 162 °C.

Question: With `COc1ccc(/C=C/C(=O)C2C(=O)C[C@H](c3ccc(OC)cc3)[C@H]([N+](=O)[O-])[C@H]2c2ccc3c(c2)OCO3)cc1` (some centres unmarked) [IX-6, 3-(Benzo[a][1,3]dioxol-5-yl)-5-(4-Methoxyphenyl)-2-((E)-3-(4-Methoxyphenyl)acryloyl)-4-Nitrocyclohexanone] as the compound, how does the melting point read?
Answer: The melting point was 154 to 156 °C.

Question: With `COc1ccc(/C=C/C(=O)C2C(=O)C[C@H](c3ccc(OC)cc3)[C@H]([N+](=O)[O-])[C@H]2c2ccco2)cc1` (some centres unmarked) [IX-7, 3-(Furan-2-yl)-5-(4-Methoxyphenyl)-2-((E)-3-(4-Methoxyphenyl)acryloyl)-4-Nitrocyclohexanone] as the compound, how does the melting point read?
Answer: The melting point was 192 °C.

Question: For `COc1ccc(/C=C/C(=O)C2C(=O)C[C@H](c3ccc(OC)cc3)[C@H]([N+](=O)[O-])[C@H]2/C=C/c2ccccc2)cc1` (some centres unmarked) [IX-9, 5-(4-Methoxyphenyl)-2-((E)-3-(4-Methoxyphenyl)acryloyl)-4-nitro-3-styrylcyclohexanone], which melting point is on record?
Answer: Its melting point is 88 to 90 °C.

Question: Which melting point does the source give for `COc1ccc(C2C(C(=O)/C=C/c3ccc(OC)c(OC)c3)C(=O)C[C@H](c3ccc(OC)c(OC)c3)[C@@H]2[N+](=O)[O-])cc1` (some centres unmarked) [IX-10, 5-(3,4-dimethoxyphenyl)-3-(4-methoxyphenyl)-2-((E)-3-(3,4-dimethoxyphenyl)acryloyl)-4-Nitrocyclohexanone] here?
Answer: Its melting point is 158 to 160 °C.

Question: Which melting point does the source give for `COc1ccc([C@H]2C(C(=O)/C=C/c3ccc(O)c(OC)c3)C(=O)C[C@H](c3ccc(O)c(OC)c3)[C@@H]2[N+](=O)[O-])cc1` (some centres unmarked) [IX-11, 5-(4-hydroxy-3-methoxyphenyl)-2-((E)-3-(4-hydroxy-3-methoxyphenyl)acryloyl)-3-(4-methoxyphenyl)-4-nitrocyclohexanone] here?
Answer: The melting point was 83 to 85 °C.

Question: Which melting point does the source give for `COc1ccc([C@H]2C(C(=O)/C=C/c3ccccc3)C(=O)C[C@H](c3ccccc3)[C@@H]2[N+](=O)[O-])cc1` (some centres unmarked) [IX-12, 3-(4-methoxyphenyl)-4-nitro-5-phenyl-2-((E)-3-phenylacryloyl)cyclohexanone] here?
Answer: The melting point was 108 to 110 °C.

Question: With `COc1ccc(/C=C/C(=O)C2C(=O)C[C@H](c3ccc(OC)cc3)[C@H]([N+](=O)[O-])[C@H]2C2CCCCC2)cc1` (some centres unmarked) [IX-14, 3-cyclohexyl-5-(4-methoxyphenyl)-2-((E)-3-(4-methoxyphenyl)acryloyl)-4-nitrocyclohexanone] as the compound, how does the melting point read?
Answer: Its melting point is 203 to 205 °C.

Question: Which melting point does the source give for `CCCC[C@H]1C(C(=O)/C=C/c2ccc(OC)cc2)C(=O)C[C@H](c2ccc(OC)cc2)[C@@H]1[N+](=O)[O-]` (some centres unmarked) [IX-15, 3-butyl-5-(4-methoxyphenyl)-2-((E)-3-(4-methoxyphenyl)acryloyl)-4-nitrocyclohexanone] here?
Answer: The melting point was 127 to 129 °C.

Question: Which melting point does the source give for `COc1ccc([C@H]2C(C(=O)/C=C/c3ccc(OCc4ccccc4)c(OC)c3)C(=O)C[C@H](c3ccc(OCc4ccccc4)cc3)[C@@H]2[N+](=O)[O-])cc1` (some centres unmarked) [IX-16, 2-((E)-3-(4-(benzyloxy)-3-methoxyphenyl)acryloyl)-5-(4-(benzyloxy)phenyl)-3-(4-methoxyphenyl)-4-nitrocyclohexanone] here?
Answer: The melting point was 76 to 78 °C.
